Test results reported in PubChem BioAssay (NCI).
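Five compound concentrations were applied to cells in 96-well plates for 48 hours; endpoints were derived by simple linear interpolation of the resulting dose-response curve. TGI marks complete inhibition of growth.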

Key:
Assay in all cases: growth of human tumour cells (NCI), 48 h
786-0 renal = tested on: 786-0 renal
A498 renal = tested on: A498 renal
A549 NSCLC = tested on: A549 NSCLC
ACHN renal = tested on: ACHN renal
CAKI-1 renal = tested on: CAKI-1 renal
CCRF-CEM leukemia = tested on: CCRF-CEM leukemia
COLO 205 colon = tested on: COLO 205 colon
DLD-1 colon = tested on: DLD-1 colon
DMS 114 small cell lung = tested on: DMS 114 small cell lung
DMS 273 small cell lung = tested on: DMS 273 small cell lung
HCC-2998 colon = tested on: HCC-2998 colon
HCT-116 colon = tested on: HCT-116 colon
HCT-15 colon = tested on: HCT-15 colon
HL-60(TB) leukemia = tested on: HL-60(TB) leukemia
HOP-18 NSCLC = tested on: HOP-18 NSCLC
HOP-62 NSCLC = tested on: HOP-62 NSCLC
HOP-92 NSCLC = tested on: HOP-92 NSCLC
HT29 colon = tested on: HT29 colon
IGROV1 ovarian = tested on: IGROV1 ovarian
K-562 leukemia = tested on: K-562 leukemia
KM20L2 colon = tested on: KM20L2 colon
LOX IMVI melanoma = tested on: LOX IMVI melanoma
LXFL 529 NSCLC = tested on: LXFL 529 NSCLC
M14 melanoma = tested on: M14 melanoma
M19-MEL melanoma = tested on: M19-MEL melanoma
MALME-3M melanoma = tested on: MALME-3M melanoma
MOLT-4 leukemia = tested on: MOLT-4 leukemia
NCI-H226 lung = tested on: NCI-H226 lung
NCI-H23 lung = tested on: NCI-H23 lung
NCI-H460 lung = tested on: NCI-H460 lung
OVCAR-3 ovarian = tested on: OVCAR-3 ovarian
OVCAR-4 ovarian = tested on: OVCAR-4 ovarian
OVCAR-5 ovarian = tested on: OVCAR-5 ovarian
OVCAR-8 ovarian = tested on: OVCAR-8 ovarian
RPMI-8226 leukemia = tested on: RPMI-8226 leukemia
SF-268 CNS = tested on: SF-268 CNS
SF-295 CNS = tested on: SF-295 CNS
SK-MEL-28 melanoma = tested on: SK-MEL-28 melanoma
SK-MEL-5 melanoma = tested on: SK-MEL-5 melanoma
SK-OV-3 ovarian = tested on: SK-OV-3 ovarian
SN12C renal = tested on: SN12C renal
SNB-19 CNS = tested on: SNB-19 CNS
SR leukemia = tested on: SR leukemia
SW-620 colon = tested on: SW-620 colon
TK-10 renal = tested on: TK-10 renal
U251 CNS = tested on: U251 CNS
UACC-257 melanoma = tested on: UACC-257 melanoma
UACC-62 melanoma = tested on: UACC-62 melanoma
UO-31 renal = tested on: UO-31 renal

Measured: TGI

O=C(O)CSc1ccc2[nH]c3ccccc3c(=O)c2c1
> 100 µM: 786-0 renal | A498 renal | A549 NSCLC | ACHN renal | CAKI-1 renal | CCRF-CEM leukemia | COLO 205 colon | DLD-1 colon | DMS 114 small cell lung | DMS 273 small cell lung | HCC-2998 colon | HCT-116 colon | HCT-15 colon | HL-60(TB) leukemia | HOP-18 NSCLC | HOP-62 NSCLC | HOP-92 NSCLC | HT29 colon | IGROV1 ovarian | K-562 leukemia | KM20L2 colon | LOX IMVI melanoma | LXFL 529 NSCLC | M14 melanoma | M19-MEL melanoma | MALME-3M melanoma | MOLT-4 leukemia | NCI-H226 lung | NCI-H23 lung | NCI-H460 lung | OVCAR-3 ovarian | OVCAR-4 ovarian | OVCAR-5 ovarian | OVCAR-8 ovarian | RPMI-8226 leukemia | SF-268 CNS | SF-295 CNS | SK-MEL-28 melanoma | SK-MEL-5 melanoma | SK-OV-3 ovarian | SN12C renal | SNB-19 CNS | SR leukemia | SW-620 colon | TK-10 renal | U251 CNS | UACC-257 melanoma | UACC-62 melanoma | UO-31 renal
